In patent publication US9890171B2, “Aldosterone synthase inhibitors” (Boehringer Ingelheim International GmbH, priority 2014, dated 2018):

These compounds were tested against aldosterone synthase (CYP11B2) (Macaca fascicularis, UniProt A0A2K5UPL9) (assay: aldosterone synthase inhibition assay). Settings: cynomolgus adrenal gland mitochondria, 2 μM corticosterone, aldosterone quantified by mass spectrometry.
Type: biochemical, cynomolgus monkey
Procedure, shortened: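 Cynomolgus adrenal mitochondria ([…]) used as CYP11B2 source with 2 μM corticosterone in 100 mM potassium phosphate pH 7.4, 1% DMSO; reaction started with 1 mM NADPH, run 60-90 min at 37° C. Aldosterone measured by mass spectrometry; IC50 from 4-parameter logistic fit, no-NADPH blank as 0%.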

aldosterone synthase (CYP11B2), sequence (A0A2K5UPL9 1-503): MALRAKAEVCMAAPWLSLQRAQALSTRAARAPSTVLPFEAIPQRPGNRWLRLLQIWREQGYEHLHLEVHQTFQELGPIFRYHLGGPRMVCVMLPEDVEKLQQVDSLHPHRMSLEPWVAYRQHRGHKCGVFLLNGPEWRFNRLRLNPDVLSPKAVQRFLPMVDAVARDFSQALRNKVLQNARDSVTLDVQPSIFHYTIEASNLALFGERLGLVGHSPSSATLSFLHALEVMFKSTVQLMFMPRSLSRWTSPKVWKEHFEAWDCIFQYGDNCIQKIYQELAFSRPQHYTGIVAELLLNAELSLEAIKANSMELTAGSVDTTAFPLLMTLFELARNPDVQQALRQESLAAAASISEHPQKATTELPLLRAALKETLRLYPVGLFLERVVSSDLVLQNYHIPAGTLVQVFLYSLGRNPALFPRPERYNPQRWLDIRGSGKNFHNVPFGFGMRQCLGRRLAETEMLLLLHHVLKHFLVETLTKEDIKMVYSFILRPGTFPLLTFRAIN

Point of comparison: `CC(=O)NC1COCc2c(-c3ccc4c(c3)CCC4=O)cncc21` (single isomer, unassigned) [Compound 151, N-[8-(1-Oxo-indan-5-yl)-3,4-dihydro-1H-pyrano[4,3-c]pyridin-4-yl]-acetamide], IC50 4880 nM. Against it:
- OC1COCc2c(-c3ccc4c(c3)C(F)(F)CCO4)cncc21 (single isomer, unassigned) [Compound 141, 8-(4,4-Difluoro-chroman-6-yl)-3,4-dihydro-1H-pyrano[4,3-c]pyridin-4-ol] — 14-fold lower, 339 nM
- OC1COCc2c(-c3ccc4c(c3)C(F)(F)CCO4)cncc21 (single isomer, unassigned) [Compound 142, 8-(4,4-Difluoro-chroman-6-yl)-3,4-dihydro-1H-pyrano[4,3-c]pyridin-4-ol] — 41-fold lower, 118 nM
- CCC(=O)NC1COCc2c(-c3ccc4c(c3)C(F)(F)CCO4)cncc21 (single isomer, unassigned) [Compound 143, N-[8-(4,4-Difluoro-chroman-6-yl)-3,4-dihydro-1H-pyrano[4,3-c]pyridin-4-yl]-propionamide] — 170-fold lower, 27.9 nM
- CCS(=O)(=O)NC1COCc2c(-c3ccc4c(c3)C(F)(F)CCO4)cncc21 (single isomer, unassigned) [Compound 144, Ethanesulfonic acid [8-(4,4-difluoro-chroman-6-yl)-3,4-dihydro-1H-pyrano[4,3-c]pyridin-4-yl]-amide] — 10-fold lower, 470 nM
- O=C1NCCOc2cc(-c3cncc4c3COCC4O)ccc21 (single isomer, unassigned) [Compound 145, 8-(4-Hydroxy-3,4-dihydro-1H-pyrano[4,3-c]pyridin-8-yl)-3,4-dihydro-2H-benzo[f][1,4]oxazepin-5-one] — 6.6-fold lower, 738 nM
- O=C1NCCOc2cc(-c3cncc4c3COCC4O)ccc21 (single isomer, unassigned) [Compound 146, 8-(4-Hydroxy-3,4-dihydro-1H-pyrano[4,3-c]pyridin-8-yl)-3,4-dihydro-2H-benzo[f][1,4]oxazepin-5-one] — 2-fold higher, 9730 nM
- CCC(=O)NC1COCc2c(-c3ccc4c(c3)OCCNC4=O)cncc21 (single isomer, unassigned) [Compound 147, N-[8-(5-Oxo-2,3,4,5-tetrahydro-benzo[f][1,4]oxazepin-8-yl)-3,4-dihydro-1H-pyrano[4,3-c]pyridin-4-yl]-propionamide] — 2.9-fold lower, 1690 nM
- OC1COCc2c(-c3ccc4c(c3)COCCC4(F)F)cncc21 (single isomer, unassigned) [Compound 148, 8-(5,5-Difluoro-1,3,4,5-tetrahydro-benzo[c]oxepin-8-yl)-3,4-dihydro-1H-pyrano[4,3-c]pyridin-4-ol] — 58-fold lower, 83.7 nM
- Cn1ncc2c(F)cc(-c3cncc4c3COCC4N)cc21 (single isomer, unassigned) [Compound 149, 8-(4-Fluoro-1-methyl-1H-indazol-6-yl)-3,4-dihydro-1H-pyrano[4,3-c]pyridin-4-ylamine] — 280-fold lower, 17.3 nM
- CCC(=O)NC1COCc2c(-c3cc(F)c4cnn(C)c4c3)cncc21 (single isomer, unassigned) [Compound 150, N-[8-(4-Fluoro-1-methyl-1H-indazol-6-yl)-3,4-dihydro-1H-pyrano[4,3-c]pyridin-4-yl]-propionamide] — 280-fold lower, 17.4 nM
- CC(=O)NC1COCc2c(-c3ccc4c(c3)CCC4=O)cncc21 (single isomer, unassigned) [Compound 152, N-[8-(1-Oxo-indan-5-yl)-3,4-dihydro-1H-pyrano[4,3-c]pyridin-4-yl]-acetamide] — 97-fold lower, 50.2 nM
- CC(C)(O)CC(=O)NC1COCc2c(-c3ccc4c(c3)CCC4=O)cncc21 (single isomer, unassigned) [Compound 153, 3-Hydroxy-3-methyl-N-[8-(1-oxo-indan-5-yl)-3,4-dihydro-1H-pyrano[4,3-c]pyridin-4-yl]-butyramide] — 70-fold lower, 70 nM
- CC(=O)NC1COCc2c(-c3ccc4oc(=O)ccc4c3)cncc21 (single isomer, unassigned) [Compound 154, N-[8-(2-Oxo-2H-chromen-6-yl)-3,4-dihydro-1H-pyrano[4,3-c]pyridin-4-yl]-acetamide] — 190-fold lower, 26.3 nM
